Literature values in US20200146297A1, “FAST SYMPTOM HERBICIDAL COMPOSITIONS CONTAINING AN ORGANO[…], BI[…] A[…] SURFACTANT” (Monsanto Technology LLC, priority 2016, published 2020).

What was measured:
plant = conditions: after treatment
[1] = known to decompose

SMILES	time until visual symptoms of treatment appear (plant)	pH at which decomposition occurs [1]
O=C(O)CNCP(=O)(O)O [glyphosate, N-(phosphonomethyl)glycine]	one week or more	
c1cc[n+]2c(c1)-c1cccc[n+]1CC2 [Diquat dibromide]		greater than 7
